# Counter-ions that a name gives are not always drawn.
# Experiments:
# [1] = Inactivation kinetics by HPLC of high potency APIs with chemical agents; assay type: physicochemical; conditions: chemical agents and analytical methods appropriate for each API; different exposure time; HPLC (FIG. 4)
# Experimental: The inactivation kinetics by HPLC of high potency APIs bortezomib, decitabine, sunitinib malate, temozolomide and zoledronic acid was evaluated using chemical agents and analytical methods appropriate for each API.
# [2] = Inactivation kinetics by HPLC of imatinib mesylate liquid waste with hypochlorous acid; assay type: physicochemical; conditions: 20 mg/mL aqueous solution, 1% hypochlorous acid aqueous solution as inactivation chemical agent
# Experimental: The inactivation kinetics by HPLC of a liquid waste comprising 20 mg/mL imatinib mesylate aqueous solution was evaluated using a 1% hypochlorous acid aqueous solution as inactivation chemical agent, as illustrated in FIGS. 2 and 3. It is possible to verify that 10 minutes of exposure were enough for complete inactivation of imatinib mesylate by hypochlorous acid.
# The equipment used was a High-Performance Liquid Chromatography-HPLC, Agilent Tech. Model 1260.
# Solution A: Prepare a mixture of methanol and acetonitrile (300:200) and homogenize.
# Mobile Phase: transfer 1.65 g of sodium dihydrogen phosphate dihydrate to a beaker. Dissolve in 550 mL of purified water and adjust pH to 8.0±0.2 using trimethylamine and homogenize. Add 450 mL of solution A, homogenize and filter using a membrane of 0.45 μm.
# Chromatographic Conditions:
# Column: Develosil ODS HG-5 (4.6×150 mm, 5 μm)—Phenomenex
# Column temperature: 30° C.
# Chromatographic time: 50 minutes
# Retention time for imatinib: about 18 minutes
# Sample temperature: 5° C.
Structure (SMILES),inactivation by chemical agent action [1],exposure time enough for complete inactivation [2]
CC(C)C[C@H](NC(=O)[C@H](Cc1ccccc1)NC(=O)c1cnccn1)B(O)O [bortezomib],completely inactivated,–
Cc1ccc(NC(=O)c2ccc(CN3CCN(C)CC3)cc2)cc1Nc1nccc(-c2cccnc2)n1 [imatinib mesylate],–,≤ 10 min
CCN(CC)CCNC(=O)c1c(C)[nH]c(/C=C2\C(=O)Nc3ccc(F)cc32)c1C [sunitinib malate],completely inactivated,–
